According to patent publication US9982017B2, “Synthetic apelin mimetics for the treatment of heart failure” (priority 2012, dated 2018):
Where a SMILES comes first, the peptide text is derived from it. Bridges are numbered along the chain shown (N, C = ends). [ ]: non-standard residue; d: D form. The star is where a group is joined. Myristoyl = CCCCCCCCCCCCCC(=O)*; pGlu = O=C1CC[C@@H](C(=O)O)N1; Lauroyl = CCCCCCCCCCCC(=O)*; hCys = N[C@@H](CCS)C(=O)O; Nle = CCCC[C@H](N)C(=O)O; AEEA = NCCOCCOCC(=O)O; Aib = CC(C)(N)C(=O)O

Experiment: in vitro
Conditions: rat, not told, Surrogate activity-based Plasma stability t½

Row | half-life [h] | Compound
1 | > 16.7 | CCCC[C@@H]1NC(=O)[C@@H]2CCCN2C(=O)CNC(=O)[C@H](CCC(=O)O)NC(=O)[C@H](Cc2c[nH]cn2)NC(=O)[C@@H](NC(=O)[C@H](CC(C)C)NC(=O)[C@H](CCCNC(=N)N)NC(=O)[C@@H]2CCCN2C(=O)[C@H](CCCNC(=N)N)NC(=O)[C@@H]2CCC(=O)N2)CSSC[C@@H](C(=O)N[C@@H](Cc2ccccc2)C(=O)O)NC1=O [Example 38, pE-R-P-R-L-C-H-E-G-P-Nle-C-F-OH] ([pGlu]RPRLCHEGP[Nle]CF-OH; disulfide 6-12)
2 | > 16.7 | CCCCCCCCCCCCCC(=O)NCCOCCOCC(=O)NCCOCCOCC(=O)NCCOCCOCC(=O)N[C@@H](CCC(N)=O)C(=O)N[C@@H](CCCNC(=N)N)C(=O)N1CCC[C@H]1C(=O)N[C@@H](CCCNC(=N)N)C(=O)N[C@@H](CC(C)C)C(=O)N[C@H]1CSSC[C@@H](C(=O)N[C@H](Cc2ccccc2)C(=O)O)NC(=O)[C@H](CCCC)NC(=O)[C@@H]2CCCN2C(=O)CNC(=O)[C@H](CCCCN)NC(=O)[C@H](Cc2c[nH]cn2)NC1=O [Example 59, Myristoyl-O2Oc-O2Oc-O2Oc-Q-R-P-R-L-C-H-K-G-P-Nle-C-f-OH] ({Myristoyl-AEEA-AEEA-AEEA}-QRPRLCHKGP[Nle]C[dF]-OH; disulfide 6-12)
3 | > 16.7 | CCCC[C@@H]1NC(=O)[C@@H]2CCCN2C(=O)CNC(=O)[C@H](CCCCN)NC(=O)[C@H](Cc2c[nH]cn2)NC(=O)[C@@H](NC(=O)[C@H](CC(=O)O)NC(=O)[C@H](CCCNC(=N)N)NC(=O)[C@@H]2CCCN2C(=O)[C@H](CCCNC(=N)N)NC(=O)[C@@H]2CCC(=O)N2)CSSC[C@@H](C(=O)N[C@@H](Cc2ccccc2)C(=O)O)NC1=O [Example 42, pE-R-P-R-D-C-H-K-G-P-Nle-C-F-OH] ([pGlu]RPRDCHKGP[Nle]CF-OH; disulfide 6-12)
4 | > 16.7 | CCCC[C@@H]1NC(=O)[C@@H]2CCCN2C(=O)CNC(=O)[C@H](CCCCN)NC(=O)[C@H](Cc2c[nH]cn2)NC(=O)[C@@H](NC(=O)[C@H](CC(C)C)NC(=O)[C@H](CCCNC(=N)N)NC(=O)[C@H]2CCCN2C(=O)[C@H](CCCNC(=N)N)NC(=O)[C@@H]2CCC(=O)N2)CSSC[C@@H](C(=O)N[C@@H](Cc2ccccc2)C(=O)O)NC1=O [Example 33, pE-R-p-R-L-C-H-K-G-P-Nle-C-F-OH] ([pGlu]R[dP]RLCHKGP[Nle]CF-OH; disulfide 6-12)
5 | > 16.7 | CCCC[C@@H]1NC(=O)[C@@H]2CCCN2C(=O)CNC(=O)[C@H](CCCCN)NC(=O)[C@H](Cc2c[nH]cn2)NC(=O)[C@@H](NC(=O)[C@H](CC(C)C)NC(=O)[C@H](CCCNC(=N)N)NC(=O)[C@@H]2CCCN2C(=O)[C@H](CCC(=O)O)NC(=O)[C@@H]2CCC(=O)N2)CSSC[C@@H](C(=O)N[C@@H](Cc2ccccc2)C(=O)O)NC1=O [Example 32, pE-E-P-R-L-C-H-K-G-P-Nle-C-F-OH] ([pGlu]EPRLCHKGP[Nle]CF-OH; disulfide 6-12)
6 | 11.7 | CCCC[C@@H]1NC(=O)[C@@H]2CCCN2C(=O)CNC(=O)[C@H](CCCCN)NC(=O)[C@H](Cc2c[nH]cn2)NC(=O)[C@@H](NC(=O)[C@H](CC(C)C)NC(=O)[C@H](CCCNC(=N)N)NC(=O)[C@@H]2CCCN2C(=O)[C@H](CCCNC(=N)N)NC(=O)[C@@H]2CCC(=O)N2)CSSC[C@@H](C(N)=O)NC1=O [Example 63, pE-R-P-R-L-C-H-K-G-P-Nle-C-NH2] ([pGlu]RPRLCHKGP[Nle]C-NH2; disulfide 6-12)
7 | 3.01 | CCCC[C@@H]1NC(=O)[C@@H]2CCCN2C(=O)CNC(=O)[C@H](CCCCN)NC(=O)[C@H](Cc2ccccc2)NC(=O)[C@@H](NC(=O)[C@H](CC(C)C)NC(=O)[C@H](CCCNC(=N)N)NC(=O)[C@@H]2CCCN2C(=O)[C@H](CCCNC(=N)N)NC(=O)[C@@H]2CCC(=O)N2)CSSC[C@@H](C(=O)N[C@@H](Cc2ccccc2)C(=O)O)NC1=O [Example 15, pE-R-P-R-L-C-F-K-G-P-Nle-C-F-OH] ([pGlu]RPRLCFKGP[Nle]CF-OH; disulfide 6-12)
8 | > 16.7 | CCCCCCCCCCCC(=O)NCCCC[C@H](NC(=O)[C@@H]1CSSC[C@H](NC(=O)[C@H](CC(C)C)NC(=O)[C@H](CCCNC(=N)N)NC(=O)[C@@H]2CCCN2C(=O)[C@H](CCCNC(=N)N)NC(=O)[C@@H]2CCC(=O)N2)C(=O)N[C@@H](Cc2c[nH]cn2)C(=O)N[C@@H](CCCCN)C(=O)NCC(=O)N2CCC[C@H]2C(=O)N[C@@H](CCCC)C(=O)N1)C(=O)O [Example 26, pE-R-P-R-L-C-H-K-G-P-Nle-C-K(Lauroyl)-OH] ([pGlu]RPRLCHKGP[Nle]CK(Lauroyl)-OH; disulfide 6-12)
9 | > 16.7 | CCCC[C@@H]1NC(=O)[C@@H]2CCCN2C(=O)CNC(=O)[C@H](CCCCN)NC(=O)[C@H](Cc2c[nH]cn2)NC(=O)[C@@H](NC(=O)[C@H](CC(C)C)NC(=O)[C@H](CCCNC(=N)N)NC(=O)[C@@H]2CCCN2C(=O)[C@H](Cc2ccccc2)NC(=O)[C@@H]2CCC(=O)N2)CSSC[C@@H](C(=O)N[C@@H](Cc2ccccc2)C(=O)O)NC1=O [Example 31, pE-F-P-R-L-C-H-K-G-P-Nle-C-F-OH] ([pGlu]FPRLCHKGP[Nle]CF-OH; disulfide 6-12)
10 | > 16.7 | CCCC[C@@H]1NC(=O)[C@@H]2CCCN2C(=O)CNC(=O)[C@H](CCCCN)NC(=O)[C@H](Cc2c[nH]cn2)NC(=O)[C@@H](NC(=O)[C@H](CC(C)C)NC(=O)[C@H](CCCNC(=N)N)NC(=O)[C@@H]2CCCN2C(=O)[C@H](CCCNC(=N)N)NC(=O)[C@@H]2CCC(=O)N2)CSSC[C@@H](C(=O)N[C@@H](Cc2ccccc2)C(N)=O)NC1=O [Example 62, pE-R-P-R-L-C-H-K-G-P-Nle-C-F-NH2] ([pGlu]RPRLCHKGP[Nle]CF-NH2; disulfide 6-12)
11 | 2.74 | CCCC[C@@H]1NC(=O)[C@@H]2CCCN2C(=O)CNC(=O)[C@H](CCCCN)NC(=O)[C@H](Cc2c[nH]cn2)NC(=O)[C@@H](NC(=O)[C@H](CCCCN)NC(=O)[C@H](CCCNC(=N)N)NC(=O)[C@@H]2CCCN2C(=O)[C@H](CCCNC(=N)N)NC(=O)[C@@H]2CCC(=O)N2)CSSC[C@@H](C(=O)N[C@@H](Cc2ccccc2)C(=O)O)NC1=O [Example 37, pE-R-P-R-K-C-H-K-G-P-Nle-C-F-OH] ([pGlu]RPRKCHKGP[Nle]CF-OH; disulfide 6-12)
12 | 9.93 | CCCC[C@@H]1NC(=O)[C@@H]2CCCN2C(=O)CNC(=O)[C@H](CCCCN)NC(=O)[C@H](Cc2cnc[nH]2)NC(=O)[C@@H](NC(=O)[C@H](CC(C)C)NC(=O)[C@H](CCCNC(=N)N)NC(=O)[C@@H]2CCCN2C(=O)[C@H](CCCNC(=N)N)NC(=O)[C@@H]2CCC(=O)N2)CSC[C@@H](C(=O)N[C@@H](Cc2ccccc2)C(=O)O)NC1=O [Example 65, pE-R-P-R-L-C-H-K-G-P-Nle-C-F-OH]
13 | > 16.7 | CCCC[C@@H]1NC(=O)[C@@H]2CCCN2C(=O)CNC(=O)[C@H](CCCCN)NC(=O)[C@H](Cc2c[nH]cn2)NC(=O)[C@H](NC(=O)[C@H](CC(C)C)NC(=O)[C@H](CCCNC(=N)N)NC(=O)[C@@H]2CCCN2C(=O)[C@H](CCCNC(=N)N)NC(=O)[C@@H]2CCC(=O)N2)CSSC[C@@H](C(=O)N[C@@H](Cc2ccccc2)C(=O)O)NC1=O [Example 53, pE-R-P-R-L-c-H-K-G-P-Nle-C-F-OH] ([pGlu]RPRL[dC]HKGP[Nle]CF-OH; disulfide 6-12)
14 | > 16.7 | CCCC[C@@H]1NC(=O)[C@@H]2CCCN2C(=O)CNC(=O)[C@H](CCCCN)NC(=O)[C@H](Cc2c[nH]cn2)NC(=O)[C@@H](NC(=O)[C@H](CC(C)C)NC(=O)[C@H](CCCNC(=N)N)NC(=O)[C@@H]2CCCN2C(=O)[C@H](CCCNC(=N)N)NC(=O)[C@@H]2CCC(=O)N2)CSSC[C@@H](C(=O)N[C@@H](CCC(=O)O)C(=O)O)NC1=O [Example 49, pE-R-P-R-L-C-H-K-G-P-Nle-C-E-OH] ([pGlu]RPRLCHKGP[Nle]CE-OH; disulfide 6-12)
15 | > 16.7 | CCCCCCCCCCCC(=O)NCCOCCOCC(=O)N[C@@H](CCC(N)=O)C(=O)N[C@@H](CCCNC(=N)N)C(=O)N1CCC[C@H]1C(=O)N[C@@H](CCCNC(=N)N)C(=O)N[C@@H](CC(C)C)C(=O)N[C@H]1CSSC[C@@H](C(=O)N[C@@H](Cc2ccccc2)C(=O)O)NC(=O)[C@H](CCCC)NC(=O)[C@@H]2CCCN2C(=O)CNC(=O)[C@H](CCCCN)NC(=O)[C@H](Cc2c[nH]cn2)NC1=O [Example 25, Lauroyl-O2Oc-Q-R-P-R-L-C-H-K-G-P-Nle-C-F-OH] ({Lauroyl-AEEA}-QRPRLCHKGP[Nle]CF-OH; disulfide 6-12)
16 | 8.17 | CCCC[C@@H]1NC(=O)[C@@H]2CCCN2C(=O)C(C)(C)NC(=O)[C@H](CCCCN)NC(=O)[C@H](Cc2c[nH]cn2)NC(=O)[C@@H](NC(=O)[C@H](CC(C)C)NC(=O)[C@H](CCCNC(=N)N)NC(=O)[C@@H]2CCCN2C(=O)[C@H](CCCNC(=N)N)NC(=O)[C@@H]2CCC(=O)N2)CSSC[C@@H](C(=O)N[C@@H](Cc2ccccc2)C(=O)O)NC1=O [Example 20, pE-R-P-R-L-C-H-K-Aib-P-Nle-C-F-OH] ([pGlu]RPRLCHK[Aib]P[Nle]CF-OH; disulfide 6-12)
17 | > 16.7 | CCCC[C@@H]1NC(=O)[C@@H]2CCCN2C(=O)CNC(=O)[C@H](CCCCN)NC(=O)[C@H](Cc2c[nH]cn2)NC(=O)[C@H](NC(=O)[C@H](CC(C)C)NC(=O)[C@H](CCCNC(=N)N)NC(=O)[C@@H]2CCCN2C(=O)[C@H](CCCNC(=N)N)NC(=O)[C@@H]2CCC(=O)N2)CSSC[C@H](C(=O)N[C@@H](Cc2ccccc2)C(=O)O)NC1=O [Example 57, pE-R-P-R-L-c-H-K-G-P-Nle-c-F-OH] ([pGlu]RPRL[dC]HKGP[Nle][dC]F-OH; disulfide 6-12)
18 | 10.9 | CCCC[C@@H]1NC(=O)[C@@H]2CCCN2C(=O)CNC(=O)[C@H](CCCCN)NC(=O)[C@H](Cc2c[nH]cn2)NC(=O)[C@@H](NC(=O)[C@H](CC(C)C)NC(=O)[C@H](CCCNC(=N)N)NC(=O)[C@@H]2CCCN2C(=O)[C@H](CCCNC(=N)N)NC(=O)[C@@H]2CCC(=O)N2)CSSCC[C@@H](C(=O)N[C@@H](Cc2ccccc2)C(=O)O)NC1=O [Example 51, pE-R-P-R-L-C-H-K-G-P-Nle-hC-F-OH] ([pGlu]RPRLCHKGP[Nle][hCys]F-OH; disulfide 6-12)
19 | > 16.7 | CCCC[C@@H]1NC(=O)[C@@H]2CCCN2C(=O)CNC(=O)[C@H](CCCCN)NC(=O)[C@H](Cc2c[nH]cn2)NC(=O)[C@@H](NC(=O)[C@H](CC(C)C)NC(=O)[C@H](CCCNC(=N)N)NC(=O)[C@@H]2CCCN2C(=O)[C@H](CCCNC(=N)N)NC(=O)[C@@H]2CCC(=O)N2)CSSC[C@H](C(=O)N[C@@H](Cc2ccccc2)C(=O)O)NC1=O [Example 56, pE-R-P-R-L-C-H-K-G-P-Nle-c-F-OH] ([pGlu]RPRLCHKGP[Nle][dC]F-OH; disulfide 6-12)
